Data from US20170188607A1, “SOLUBILIZATION OF A SWEET MODULATOR AND FLAVOR” (Firmenich SA, priority 2014, published 2017).

Assay: Supersaturation relative to the intrinsic solubility of the compound
Type: physicochemical
Experimental: A concentrated solution 1 of (S)-1-(3-(((4-amino-2,2-dioxido-1H-benzo[c][1,2,6]thiadiazin-5-yl)oxy)methyl)piperidin-1-yl)-3-methylbutan-1-one at 0.3% (w/w) (3000 ppm) was prepared in water. pH was adjusted to 11 using NaOH to form (S)-1-(3-(((4-amino-2,2-dioxido-1H-benzo[c][1,2,6]thiadiazin-5-yl)oxy)methyl)piperidin-1-yl)-3-methylbutan-1-one sodium salt and obtain an homogeneous solution. Next, a syrup was prepared by mixing an aqueous solution of High Fructose Corn Syrup (HFCS), citric acid and deionized water. The final syrup contained 34% fructose, 0.68% citric acid, 0.1% sodium citrate and 65.22% water, with a pH of 2. An aliquot of solution 1 was diluted 100 times with the syrup to yield a final concentration of 30 ppm of (S)-1-(3-(((4-amino-2,2-dioxido-1H-benzo[c][1,2,6]thiadiazin-5-yl)oxy)methyl)piperidin-1-yl)-3-methylbutan-1-one, i.e. about 18 times above the intrinsic solubility of the compound at 3° C. The sample was kept at 3° C. and the amount of (S)-1-(3-(((4-amino-2,2-dioxido-1H-benzo[c][1,2,6]thiadiazin-5-yl)oxy)methyl)piperidin-1-yl)-3-methylbutan-1-one was measured by UV spectroscopy as a function of time. The amount of (S)-1-(3-(((4-amino-2,2-dioxido-1H-benzo[c][1,2,6]thiadiazin-5-yl)oxy)methyl)piperidin-1-yl)-3-methylbutan-1-one was reduced to 28 ppm after 1 week and first crystals were visually observed. […]
A concentrated solution 1 of (S)-1-(3-(((4-amino-2,2-dioxido-1H-benzo[c][1,2,6]thiadiazin-5-yl)oxy)methyl)piperidin-1-yl)-3-methylbutan-1-one at […] was prepared in water. pH was adjusted to 11 using NaOH to form (S)-1-(3-(((4-amino-2,2-dioxido-1H-benzo[c][1,2,6]thiadiazin-5-yl)oxy)methyl)piperidin-1-yl)-3-methylbutan-1-one sodium salt and obtain an homogeneous solution. […] The sample was kept at 3° C. and the amount of (S)-1-(3-(((4-amino-2,2-dioxido-1H-benzo[c][1,2,6]thiadiazin-5-yl)oxy)methyl)piperidin-1-yl)-3-methylbutan-1-one was measured by UV spectroscopy as a function of time. […]

Compound: CC(C)CC(=O)N1CCC[C@H](COc2cccc3c2C(N)=NS(=O)(=O)N3)C1 [(S)-1-(3-(((4-amino-2,2-dioxido-1H-benzo[c][1,2,6]thiadiazin-5-yl)oxy)methyl)piperidin-1-yl)-3-methylbutan-1-one]
- times above the intrinsic solubility of the compound (final concentration of 18 ppm, at 3° C.): about 11 times
- times above the intrinsic solubility of the compound (final concentration of 30 ppm, at 3° C.): about 18 times
- times above the intrinsic solubility of the compound (final concentration of 100 ppm, at 20° C.): about 15 times
